This is an account of results in US10059740B2, “Integrin interaction inhibitors for the treatment of cancer” (H. LEE MOFFITT CANCER CENTER AND RESEARCH INSTITUTE, INC., priority 2010, dated 2018).

Like-named read-outs stand apart in the source and are kept apart here. Starred links: 1 amine or outer side, 2 acyl side, 3 side chain; linkers in the order of their positions; H or OH if unused. Positions of bridges follow the written chain, without caps; N, C: chain ends. Non-standard residues stand in square brackets, D forms with d. Residues, ends and D or L forms follow the SMILES beside them. *: point of attachment. dProlinol(O-CH2CO) = O=C(COC[C@H]1CCCN1[*:1])[*:2]; N(2-Aminoethyl)Gly = O=C(CN(CCN[*:3])[*:1])[*:2]; Nle = CCCC[C@H](N)C(=O)O; Ms = CS(=O)(=O)*

For the test, the system named is H929 myeloma cells. The format is cell-based. The settings on record: for activity relative to linear parent peptide (linear D-HYD1): in words; for change in activity relative to the inverso peptide L-cINTEGRIN INTERACTION INHIBITORS: alanine scan and analogs, Table 4 legend. How it is done:
H929 cells were treated for 24 hours with varying concentrations of peptide. Cell death was measured by Topro-3 staining and FACS analysis. The IC50 values were obtained from linear regression analysis and an average value was obtained from 3 independent experiments.
Table 4 legend: Structure activity relationship in H929 myeloma cells of cyclic INTEGRIN INTERACTION INHIBITORS derivatives. The minimal bioactive core sequence of INTEGRIN INTERACTION INHIBITORS WSVVM (SEQ ID NO:85) was cyclized using 2 novel reduced amide bond beta turn promoters and KLKLK (SEQ ID NO:27) as the non-recognition sequence. H929 cells were treated with varying concentrations of the indicated peptide for 24 h. Cell viability was determined using Topro-3 staining and FACS analysis after drug treatment. IC50 values were generated from linear regressions generated from the dose response curves (n=mean of 3 independent experiments).
Using combinatorial peptide libraries and a functional binding assay, several peptides have been identified that inhibited α2β1 and α6β1 integrin mediated adhesion of prostate cancer cells to fibronectin, laminin and collagen IV.^1 They identified an all D-amino acid containing peptide referred as HYD1 ([…]) (SEQ ID NO:278) that blocks binding of epithelial prostate carcinoma cells to extracellular matrix components.^2,3 Hazlehurst and co-workers have truncated the N- and C-termini and alanine scan studies identified MVISW (SEQ ID NO:279) as the likely core region of linear D-HYD1 required for biological activity. […] The pentapeptide (KLKLK) (SEQ ID NO:27) was selected as the non-recognition strand to improve the solubility. N- to C-terminus cyclization of linear peptides was done to restrict the number of conformations available to the linear peptide which increases the affinity of the cyclized peptide for its target when the constraint stabilizes the bound conformation of the peptide. We synthesized cyclic D-HYD1 using a novel methylsulfonamide aminoethyl glycine linker T1 that connects two anti-parallel strands. […] The inverso- (peptide 2, Table 4) and partially modified retro-inverso (PMRI) (peptide 10) pentapeptide sequences of the recognition strand of cyclic III (Integrin Interaction Inhibitors also known as cyclic L-HYD1) peptide analogs were subsequently investigated for their potential to block beta integrin mediated cell adhesion. The retro-inverso design of biologically active peptides is a well-known strategy to design all D-amino acid peptides from potentially bioactive all L-peptide sequences with increased stability^4-7.
A colony forming assay was used to compare induced cell death in H929 multiple myeloma cells. Cells were treated with integrin interaction inhibitors, shown in FIG. 5 and Table 4, and cell death was measured following 24 hour peptide treatment by TOPRO-3 staining and FACS analysis.

One may read the IC50 as the concentration that inhibits the measured activity by half. Turning to `CCCC[C@@H]1NC(=O)CN(S(C)(=O)=O)CCNC(=O)[C@H](CCCCN)NC(=O)[C@H](CC(C)C)NC(=O)[C@H](CCCCN)NC(=O)[C@H](CC(C)C)NC(=O)[C@H](CCCCN)NC(=O)COC[C@H]2CCCN2C(=O)[C@H](Cc2c[nH]c3ccccc23)NC(=O)[C@H](C)NC(=O)[C@H](Cc2ccccc2)NC(=O)[C@H](C(C)C)NC1=O` [Peptide 26, KLKLKT1N*VFAWT3] (Ms-[N(2-Aminoethyl)Gly][Nle]VFAW[dProlinol(O-CH2CO)]KLKLK; lactam 1-C), the 50% inhibitory concentration (IC50) (cyclic III peptide analogs, Table 8, H929 cells, TOPRO 3, read-out: IC50) amounted to 9 µM.
Regarding `CSCC[C@@H]1NC(=O)CN(S(C)(=O)=O)CCNC(=O)[C@H](CCCCN)NC(=O)[C@H](CC(C)C)NC(=O)[C@H](CCCCN)NC(=O)[C@H](CC(C)C)NC(=O)[C@H](CCCCN)NC(=O)CN(S(C)(=O)=O)CCNC(=O)[C@H](Cc2c[nH]c3ccccc23)NC(=O)[C@H](CO)NC(=O)[C@H](C(C)C)NC(=O)[C@H](C(C)C)NC1=O` [III 1], under “H929 cells”, the “fold more potent than the parent linear HYD1 peptide” value turned out to be 2.5 fold.
`CCCC[C@@H]1NC(=O)CN(S(C)(=O)=O)CCNC(=O)[C@H](CCC(N)=O)NC(=O)[C@H](CC(C)C)NC(=O)[C@H](CCCCN)NC(=O)[C@H](CC(C)C)NC(=O)[C@H](CCCCN)NC(=O)COC[C@H]2CCCN2C(=O)[C@H](Cc2c[nH]c3ccccc23)NC(=O)[C@H](C)NC(=O)[C@H](C(C)C)NC(=O)[C@H](C(C)C)NC1=O` [Peptide 19, KLKLQT1N*VVAWT3] (Ms-[N(2-Aminoethyl)Gly][Nle]VVAW[dProlinol(O-CH2CO)]KLKLQ; lactam 1-C) registered an IC50 (24 h) of 19 µM.
With `CSCC[C@H]1NC(=O)CN(S(C)(=O)=O)CCNC(=O)[C@@H](CCCCN)NC(=O)[C@@H](CC(C)C)NC(=O)[C@@H](CCCCN)NC(=O)[C@@H](CC(C)C)NC(=O)[C@@H](CCCCN)NC(=O)CN(S(C)(=O)=O)CCNC(=O)[C@@H](Cc2c[nH]c3ccccc23)NC(=O)[C@@H](CO)NC(=O)[C@@H](C(C)C)NC(=O)[C@@H](C(C)C)NC1=O` [cyclic D-HYD1], the “activity relative to linear parent peptide (linear D-HYD1)” value runs as follows: (H929 cells) “twice as active”; (H929 cells, listed as c-D-HYD1) “about twice as active”.
As to `CC(C)C[C@@H]1NC(=O)[C@H](CCCCN)NC(=O)CN(S(C)(=O)=O)CCNC(=O)[C@H](Cc2c[nH]c3ccccc23)NC(=O)[C@H](CO)NC(=O)[C@H](C(C)C)NC(=O)[C@H](C(C)C)NC(=O)[C@H](C)NC(=O)CN(S(C)(=O)=O)CCNC(=O)[C@H](CCCCN)NC(=O)[C@H](CC(C)C)NC(=O)[C@H](CCCCN)NC1=O` [III 6], the “change in activity relative to the inverso peptide L-cINTEGRIN INTERACTION INHIBITORS” value (H929 cells) is “decrease in activity”.
For `CSCC[C@@H]1NC(=O)CN(S(C)(=O)=O)CCNC(=O)[C@H](CCCCN)NC(=O)[C@H](CC(C)C)NC(=O)[C@H](CCCCN)NC(=O)[C@H](CC(C)C)NC(=O)[C@H](CCCCN)NC(=O)CN(S(C)(=O)=O)CCNC(=O)[C@H](Cc2c[nH]c3ccccc23)NC(=O)[C@H](C)NC(=O)[C@H](C(C)C)NC(=O)[C@H](C(C)C)NC1=O` [Peptide 4, KLKLKT1MVVAWT1], the “bioactivity of cyclic III peptide analogs, in words” value (SAR discussion of Table 8) is recorded as “significantly improved the bioactivity”.
Compound `CCCC[C@@H]1NC(=O)CN(S(C)(=O)=O)CCNC(=O)[C@H](CCCCN)NC(=O)[C@H](CCC(N)=O)NC(=O)[C@H](CCCCN)NC(=O)[C@H](CC(C)C)NC(=O)[C@H](CCCCN)NC(=O)COC[C@H]2CCCN2C(=O)[C@H](Cc2c[nH]c3ccccc23)NC(=O)[C@H](C)NC(=O)[C@H](C(C)C)NC(=O)[C@H](C(C)C)NC1=O` [Peptide 21, KLKQKT1N*VVAWT3] (Ms-[N(2-Aminoethyl)Gly][Nle]VVAW[dProlinol(O-CH2CO)]KLKQK; lactam 1-C) displayed an IC50 (24 h) of 25 µM.
For `CCCC[C@@H]1NC(=O)CN(S(C)(=O)=O)CCNC(=O)[C@H](CCCCN)NC(=O)[C@H](CC(C)C)NC(=O)[C@H](CCCCN)NC(=O)[C@H](CC(C)C)NC(=O)[C@H](CCCCN)NC(=O)CN(S(C)(=O)=O)CCNC(=O)[C@H](Cc2c[nH]c3ccccc23)NC(=O)[C@H](CO)NC(=O)[C@H](C(C)C)NC(=O)[C@H](C(C)C)NC1=O` [III 7], for the setting “H929 cells”, the “change in activity relative to the inverso peptide L-cINTEGRIN INTERACTION INHIBITORS” value was “increase in activity”.
